Data as given in PubChem BioAssay (NCI).
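Dose response: 5 concentrations. Exposure: 48 h. Format: 96-well plates. Endpoint: linear interpolation; highest concentration if not reached. At the GI50, growth is halved. Definition used: TGI = concentration required for complete inhibition of growth.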

Columns and labels:
Assay in all cases: DTP human tumour cell line panel, 48 h
HOP-92 NSCLC = system: HOP-92 NSCLC
HS 578T breast = system: HS 578T breast
UACC-62 melanoma = system: UACC-62 melanoma
PC-3 prostate = system: PC-3 prostate
EKVX NSCLC = system: EKVX NSCLC
SNB-19 CNS = system: SNB-19 CNS
SF-295 CNS = system: SF-295 CNS
A549 NSCLC = system: A549 NSCLC
HCT-15 colon = system: HCT-15 colon
NCI-H460 lung = system: NCI-H460 lung
UACC-257 melanoma = system: UACC-257 melanoma
SK-MEL-2 melanoma = system: SK-MEL-2 melanoma
NCI-H226 lung = system: NCI-H226 lung
HOP-62 NSCLC = system: HOP-62 NSCLC
CCRF-CEM leukemia = system: CCRF-CEM leukemia
SF-539 CNS = system: SF-539 CNS
SW-620 colon = system: SW-620 colon
SF-268 CNS = system: SF-268 CNS
RPMI-8226 leukemia = system: RPMI-8226 leukemia
NCI/ADR-RES ovarian = system: NCI/ADR-RES ovarian
OVCAR-3 ovarian = system: OVCAR-3 ovarian
ACHN renal = system: ACHN renal
OVCAR-4 ovarian = system: OVCAR-4 ovarian
CAKI-1 renal = system: CAKI-1 renal
M14 melanoma = system: M14 melanoma
COLO 205 colon = system: COLO 205 colon
786-0 renal = system: 786-0 renal
MCF7 breast = system: MCF7 breast
UO-31 renal = system: UO-31 renal
SNB-75 CNS = system: SNB-75 CNS
HCC-2998 colon = system: HCC-2998 colon
KM12 colon = system: KM12 colon
BT-549 breast = system: BT-549 breast
HCT-116 colon = system: HCT-116 colon
K-562 leukemia = system: K-562 leukemia
SK-OV-3 ovarian = system: SK-OV-3 ovarian
SN12C renal = system: SN12C renal
SK-MEL-28 melanoma = system: SK-MEL-28 melanoma
SK-MEL-5 melanoma = system: SK-MEL-5 melanoma
HT29 colon = system: HT29 colon
LOX IMVI melanoma = system: LOX IMVI melanoma
IGROV1 ovarian = system: IGROV1 ovarian
T-47D breast = system: T-47D breast
U251 CNS = system: U251 CNS
DU-145 prostate = system: DU-145 prostate
MOLT-4 leukemia = system: MOLT-4 leukemia
OVCAR-8 ovarian = system: OVCAR-8 ovarian
MDA-MB-231 breast = system: MDA-MB-231 breast
RXF 393 renal = system: RXF 393 renal
OVCAR-5 ovarian = system: OVCAR-5 ovarian
NCI-H23 lung = system: NCI-H23 lung
NCI-H522 lung = system: NCI-H522 lung
MDA-MB-435 = system: MDA-MB-435

Compound: COc1ccc(-c2cc(-c3cc(Cl)ccc3Cl)nc3[nH]c(-c4cc(F)c(Cl)cc4Cl)cc(=O)c23)cc1
- GI50 (HOP-92 NSCLC): 35.3 µM
- TGI (HOP-92 NSCLC): > 100 µM
- GI50 (HS 578T breast): 8.19 µM
- TGI (HS 578T breast): 50.4 µM
- GI50 (UACC-62 melanoma): 14.3 µM
- TGI (UACC-62 melanoma): 93.4 µM
- GI50 (PC-3 prostate): 39.3 µM
- TGI (PC-3 prostate): > 100 µM
- GI50 (EKVX NSCLC): 45 µM
- TGI (EKVX NSCLC): > 100 µM
- GI50 (SNB-19 CNS): 64.1 µM
- TGI (SNB-19 CNS): > 100 µM
- GI50 (SF-295 CNS): 23.8 µM
- TGI (SF-295 CNS): > 100 µM
- GI50 (A549 NSCLC): 14.2 µM
- TGI (A549 NSCLC): 74.7 µM
- GI50 (HCT-15 colon): 17.1 µM
- TGI (HCT-15 colon): 56.1 µM
- GI50 (NCI-H460 lung): 87.3 µM
- TGI (NCI-H460 lung): > 100 µM
- GI50 (UACC-257 melanoma): 21 µM
- TGI (UACC-257 melanoma): > 100 µM
- GI50 (SK-MEL-2 melanoma): 64.8 µM
- TGI (SK-MEL-2 melanoma): > 100 µM
- GI50 (NCI-H226 lung): 20.5 µM
- TGI (NCI-H226 lung): 63.6 µM
- GI50 (HOP-62 NSCLC): 5.52 µM
- TGI (HOP-62 NSCLC): 32.2 µM
- GI50 (CCRF-CEM leukemia): 18.4 µM
- TGI (CCRF-CEM leukemia): 55.1 µM
- GI50 (SF-539 CNS): 18.9 µM
- TGI (SF-539 CNS): 55 µM
- GI50 (SW-620 colon): 20 µM
- TGI (SW-620 colon): > 100 µM
- GI50 (SF-268 CNS): > 100 µM
- TGI (SF-268 CNS): > 100 µM
- GI50 (RPMI-8226 leukemia): 25 µM
- TGI (RPMI-8226 leukemia): 69.1 µM
- GI50 (NCI/ADR-RES ovarian): 4.95 µM
- TGI (NCI/ADR-RES ovarian): 23.2 µM
- GI50 (OVCAR-3 ovarian): > 100 µM
- TGI (OVCAR-3 ovarian): > 100 µM
- GI50 (ACHN renal): 19.9 µM
- TGI (ACHN renal): 69 µM
- GI50 (OVCAR-4 ovarian): > 100 µM
- TGI (OVCAR-4 ovarian): > 100 µM
- GI50 (CAKI-1 renal): 34.1 µM
- TGI (CAKI-1 renal): > 100 µM
- GI50 (M14 melanoma): 13.5 µM
- TGI (M14 melanoma): 35.8 µM
- GI50 (COLO 205 colon): 43.6 µM
- TGI (COLO 205 colon): > 100 µM
- GI50 (786-0 renal): 20.4 µM
- TGI (786-0 renal): 52 µM
- GI50 (MCF7 breast): 60.9 µM
- TGI (MCF7 breast): > 100 µM
- GI50 (UO-31 renal): 59.5 µM
- TGI (UO-31 renal): > 100 µM
- GI50 (SNB-75 CNS): > 100 µM
- TGI (SNB-75 CNS): > 100 µM
- GI50 (HCC-2998 colon): 15.1 µM
- TGI (HCC-2998 colon): 32.3 µM
- GI50 (KM12 colon): 21.7 µM
- TGI (KM12 colon): 67.1 µM
- GI50 (BT-549 breast): 29.6 µM
- TGI (BT-549 breast): > 100 µM
- GI50 (HCT-116 colon): 9.69 µM
- TGI (HCT-116 colon): 24.7 µM
- GI50 (K-562 leukemia): 29.3 µM
- TGI (K-562 leukemia): > 100 µM
- GI50 (SK-OV-3 ovarian): 84.6 µM
- TGI (SK-OV-3 ovarian): > 100 µM
- GI50 (SN12C renal): 24.5 µM
- TGI (SN12C renal): 76.8 µM
- GI50 (SK-MEL-28 melanoma): > 100 µM
- TGI (SK-MEL-28 melanoma): > 100 µM
- GI50 (SK-MEL-5 melanoma): 7.63 µM
- TGI (SK-MEL-5 melanoma): 33.4 µM
- GI50 (HT29 colon): 39.2 µM
- TGI (HT29 colon): > 100 µM
- GI50 (LOX IMVI melanoma): 15.3 µM
- TGI (LOX IMVI melanoma): 34.4 µM
- GI50 (IGROV1 ovarian): 16.5 µM
- TGI (IGROV1 ovarian): > 100 µM
- GI50 (T-47D breast): > 100 µM
- TGI (T-47D breast): > 100 µM
- GI50 (U251 CNS): 21.8 µM
- TGI (U251 CNS): 61.6 µM
- GI50 (DU-145 prostate): 31.3 µM
- TGI (DU-145 prostate): > 100 µM
- GI50 (MOLT-4 leukemia): 24.2 µM
- TGI (MOLT-4 leukemia): 68.6 µM
- GI50 (OVCAR-8 ovarian): 17 µM
- TGI (OVCAR-8 ovarian): 51.3 µM
- GI50 (MDA-MB-231 breast): 20.7 µM
- TGI (MDA-MB-231 breast): 83.8 µM
- GI50 (RXF 393 renal): 17.4 µM
- TGI (RXF 393 renal): > 100 µM
- GI50 (OVCAR-5 ovarian): 22.2 µM
- TGI (OVCAR-5 ovarian): 89.2 µM
- GI50 (NCI-H23 lung): 14.7 µM
- TGI (NCI-H23 lung): 55.8 µM
- GI50 (NCI-H522 lung): 20.4 µM
- TGI (NCI-H522 lung): > 100 µM
- GI50 (MDA-MB-435): 6.4 µM
- TGI (MDA-MB-435): > 100 µM
